The test system of data set [1] is Dlk1-Dio3 locus (IG-DMR) methylation in iPSCs. Kind of data set: Derivation of iPS cells in the presence of ascorbic acid, DNA methylation at the Dlk1-Dio3 locus. The format is cell-based, mouse. As to the method:
These are 1) repression of an enzyme called Dnmt3a or 2) addition of ascorbic acid (Vitamin C) to do cell culture media during reprogramming (FIG. 15).
MEFs with a doxycycline-inducible polycistronic reprogramming cassette in their genome (Stadtfeld, M. et al. A reprogrammable mouse strain from gene-targeted embryonic stem cells. Nature methods 7(1):53-5) were reprogrammed into iPS cells by culture in either doxycycline-containing ESC media or doxycycline-containing ESC media with 50 ng/μl ascorbic acid (Sigma A4544). Doxycline was withdrawn after 10-14 days of culture and emerging iPS cell colonies picked and expanded in regular ESC culture media (without doxycycline, without ascorbic acid). Pluripotency of established iPS cell clones was confirmed by marker gene expression and blastocyst injections.
Genomic DNA was isolated using the DNeasy Blood and Tissue Kit (Qiagen) and bisulfite converted using the EpiTect Bisulfite Kit (Qiagen) with 100-1000 ng input. Converted DNA was used for PCR to amplify the regulatory IG-DMR region and PCR products were sequenced using the Pyrosequencing PSQ96 HS System (Biotage AB) (Stadtfeld, M. et al. Aberrant silencing of imprinted genes on chromosome 12qF1 in mouse induced pluripotent stem cells).

The subject of data set [2] is Gtl2^off and Gtl2^on iPSCs, ESCs. The data set is described as follows: Retinoic acid in vitro differentiation of iPSCs and ESCs, qPCR. The format is cell-based, mouse. The settings on record: for Meg3/Gtl2 and Rian expression during differentiation: RA 5 days. As to the method: To assess if silencing of Meg3/Gtl2 might be resolved during differentiation, Gtl2^off and Gtl2^on iPSCs as well as ESCs were exposed to the differentiation-stimulating agent retinoic acid (RA) for 5 days. […] The expression of imprinted genes outside of chromosome 12qF1 was not affected (FIG. 3f, bottom, and FIG. 10)
(§1) cDNA was produced with the First Strand cDNA Synthesis Kit (Roche) using 1 μg of total RNA input. Real-time quantitative PCR reactions were set up in triplicate using 5 μl of cDNA (1:100 dilution) with the Brilliant II SYBR Green QPCR Master Mix (Stratagene) and run on a Mx3000P QPCR System (Stratagene).

In data set [3] the test system is Meg3/Gtl2 expression in Gtl2^off iPSC clone #45 subclones. Kind of data set: Valproic acid treatment of Gtl2off iPSC subclones, Meg3/Gtl2 expression by qPCR. Type of data set: cell-based, mouse. As for the experimental part: as §1
The subject of data set [4] is development of all-iPSC embryos/pups. The data set is described as follows: 4n blastocyst injection of VA-rescued iPSC clone. Type of data set: in vivo, mouse. As for the experimental part:
2n and 4n blastocyst injections were performed as described before (Eggan, K et al., PNAS USA 98(11):6209 (2001)). Briefly, female BDF1 mice were super-ovulated by intraperitoneal injection of PMS and hCG and mated to BDF1 stud males. Zygotes were isolated from females with a vaginal plug 24 hour after hCG injection. Zygotes for 2n injections were in vitro cultured for 3 days in vitro in KSOM media, blastocysts were identified, injected with ESCs or iPSCs and transferred into pseudopregnant recipient females. For 4n injections, zygotes were cultured overnight until they reached the 2-cell stage, at which point they were electrofused.

For data set [5], the system named is chromatin marks at the Gtl2 promoter. Kind of data set: Chromatin immunoprecipitation at the Meg3/Gtl2 locus after VA rescue. The settings on record: VA-rescued clone. Type of data set: cell-based, mouse. As for the experimental part:
20 million iPSCs, ESCs or MEFs were fixed with 1% formaldehyde for 10 minutes at room temperature (RT) and then lysed in 1 ml lysis buffer (50 mM Tris-HCl, pH 8.0, 10 mM EDTA, 1% SDS, protease inhibitors) for 20 minutes on ice. The lysate was split into three tubes and sonicated using Bioruptor for five times five minutes at high intensity, 30 sec on-30 sec off. After 10 minutes centrifugation, the supernatant was precleared for 1 hour at 4° C. with agarose beads preblocked with BSA (1 mg BSA for 10 ml beads) in IP Buffer (50 mMM Tris-HCl, pH8, 150 mM NaCl, 2 mM EDTA, 1% NP-40, 0.5% Sodium Deoxycholate, 0.1% SDS, protease inhibitors). […] of precleared chromatin per reaction diluted in 1 ml IP Buffer in presence of 2 ug antibody were used for each immunoprecipitation reaction according to manufacturer's protocol. The antibodies used for this study were: anti-aCH3 (06-5 99 Millipore), anti-acH4 (06-866, Millipore), anti-dimethyl K4 of H3 (07-030, Millipore), anti-trimethyl K27 of H3 (ab6002, Abcam) and normal rabbit IgG (Millipore). The precipitate was purified using Qiaquick PCR purification kit and was analyzed by qPCR using Brilliant II SYBR Green qPCR Master Mix (600828, Agilent Technologies) using the sequence specific primer sets. Gtl2: 5′-[…]-3′ (FWD) and 5′-[…]3′ (REV) and Pou5f1: 5′-[…]-3′ (FWD) and 5′-[…]-3′ (REV).

Molecules are shown by their SMILES.

On to `O=C1O[C@H]([C@@H](O)CO)C(O)=C1O` [ascorbic acid], for which the “abnormal methylation in iPSCs” value in data set [1] (FIG. 15b) was “prevents abnormal methylation”. For the same compound, the “frequency of "normal iPSCs"” value in data set [1] (ascorbic acid added to culture media during reprogramming) is reported as “dramatically increased”.
For the compound `CC1=C(/C=C/C(C)=C/C=C/C(C)=C/C(=O)O)C(C)(C)CCC1` [retinoic acid, all-trans retinoic acid], the “Meg3/Gtl2 and Rian expression during differentiation” value in data set [2] (Gtl2^off iPSCs) is recorded as “stable silencing”; in data set [2] (Gtl2^on iPSCs and ESCs) it was “readily upregulated”. For the same compound, the “Dlk1 expression upon differentiation” value in data set [2] (Gtl2^off iPSCs, RA treated) was “express high levels”. For the same compound, in data set [2] (all RA-treated clones, 5 days), the Pou5f1 expression entry is recorded as “downregulation of Pou5f1”.
Consider `CCCC(CCC)C(=O)O` [valproic acid], for which the “subclones exhibiting increased Meg3/Gtl2 expression” value in data set [3] (Gtl2^off iPSC subclones treated with VA) is “two out of 21”. Also, the “Meg3/Gtl2 expression level of rescued clone” value in data set [3] (one VA-treated iPSC clone, versus ESCs) is “comparable to ESCs”. For the same compound, in data set [4] (VA-rescued clone, not seen with parental iPSCs), the “full-term development after 4n blastocyst injection” value is listed as “supported the development of several full-term pups”. The “phenotype of full-term pups” value in data set [4] (pups from VA-rescued clone) was “severely overgrown, however, and hence non-viable”. The “activation-associated chromatin marks at the Meg3/Gtl2 locus” value in data set [5] is “re-appearance of H3K4 methylation and H3 acetylation”.

For the origin of these results see patent US20130196865A1, “METHOD FOR SELECTING AN IPS CELL” (THE GENERAL HOSPITAL CORPORATION, priority 2010, published 2013).
